Laboratory results: ChEMBL document CHEMBL1201862, “PubChem BioAssay data set” (2004)
Activity calls are given as the source filed them.

Key:
Cytochrome P450 2C9 [1] = molecular target: T1, Cytochrome P450 2C9 (Homo sapiens, UniProt P11712)
Cytochrome P450 2D6 = Cytochrome P450 2D6 (Homo sapiens, UniProt P10635);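 note: CYP2D6 member of a cytochrome P450 panel assay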
[2] = molecular target: Luciferin 4-monooxygenase (Photinus pyralis, UniProt P08659); test: firefly luciferase enzyme inhibitors, dose response, biochemical, luminescence (AID 1891)
Chain of Luciferin 4-monooxygenase (P08659 whole entry): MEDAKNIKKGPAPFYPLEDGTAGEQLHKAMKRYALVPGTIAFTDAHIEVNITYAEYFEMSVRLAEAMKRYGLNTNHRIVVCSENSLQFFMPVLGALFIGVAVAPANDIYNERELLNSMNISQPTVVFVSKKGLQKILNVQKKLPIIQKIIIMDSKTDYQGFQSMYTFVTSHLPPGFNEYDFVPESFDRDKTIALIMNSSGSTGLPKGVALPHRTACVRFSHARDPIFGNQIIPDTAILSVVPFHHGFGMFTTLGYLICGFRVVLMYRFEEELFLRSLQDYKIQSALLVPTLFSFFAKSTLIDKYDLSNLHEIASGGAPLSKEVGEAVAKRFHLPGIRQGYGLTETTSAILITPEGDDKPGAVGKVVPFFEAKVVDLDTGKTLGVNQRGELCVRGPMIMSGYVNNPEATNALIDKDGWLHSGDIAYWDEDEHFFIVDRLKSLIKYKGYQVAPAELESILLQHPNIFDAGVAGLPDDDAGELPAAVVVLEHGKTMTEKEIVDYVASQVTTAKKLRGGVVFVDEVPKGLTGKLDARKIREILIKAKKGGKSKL

[3] = Luminescence Cell-Based Dose Confirmation HTS to Identify Inhibitors of Platelet Dense Granule Release. [Related pubchem assays: 1663 (Primary HTS), 1678 (Summary of Project)]; format: functional
Cytochrome P450 3A4 [4] = molecular target: T2, Cytochrome P450 3A4 (Homo sapiens, UniProt P08684);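 note: CYP3A4 tested as one member of a cytochrome P450 panel screen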
T2 sequence (P08684 whole entry): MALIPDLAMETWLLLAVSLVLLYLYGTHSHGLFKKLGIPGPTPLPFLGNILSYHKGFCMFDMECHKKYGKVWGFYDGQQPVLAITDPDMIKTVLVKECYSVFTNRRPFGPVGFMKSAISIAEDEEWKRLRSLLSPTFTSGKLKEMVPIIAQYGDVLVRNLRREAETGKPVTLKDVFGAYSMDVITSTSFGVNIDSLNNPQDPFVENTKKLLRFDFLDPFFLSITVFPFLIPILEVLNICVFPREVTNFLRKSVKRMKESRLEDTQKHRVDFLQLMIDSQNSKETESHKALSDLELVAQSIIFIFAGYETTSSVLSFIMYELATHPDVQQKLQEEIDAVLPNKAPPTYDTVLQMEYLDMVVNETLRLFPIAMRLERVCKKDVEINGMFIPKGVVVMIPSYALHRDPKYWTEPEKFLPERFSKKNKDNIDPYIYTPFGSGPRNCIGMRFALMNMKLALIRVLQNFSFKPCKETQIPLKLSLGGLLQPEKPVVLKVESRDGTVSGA

Cytochrome P450 1A2 = molecular target: T3, Cytochrome P450 1A2 (Homo sapiens, UniProt P05177);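 note: PubChem cytochrome P450 panel assay, CYP1A2 panel member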
T3 sequence (P05177 whole entry): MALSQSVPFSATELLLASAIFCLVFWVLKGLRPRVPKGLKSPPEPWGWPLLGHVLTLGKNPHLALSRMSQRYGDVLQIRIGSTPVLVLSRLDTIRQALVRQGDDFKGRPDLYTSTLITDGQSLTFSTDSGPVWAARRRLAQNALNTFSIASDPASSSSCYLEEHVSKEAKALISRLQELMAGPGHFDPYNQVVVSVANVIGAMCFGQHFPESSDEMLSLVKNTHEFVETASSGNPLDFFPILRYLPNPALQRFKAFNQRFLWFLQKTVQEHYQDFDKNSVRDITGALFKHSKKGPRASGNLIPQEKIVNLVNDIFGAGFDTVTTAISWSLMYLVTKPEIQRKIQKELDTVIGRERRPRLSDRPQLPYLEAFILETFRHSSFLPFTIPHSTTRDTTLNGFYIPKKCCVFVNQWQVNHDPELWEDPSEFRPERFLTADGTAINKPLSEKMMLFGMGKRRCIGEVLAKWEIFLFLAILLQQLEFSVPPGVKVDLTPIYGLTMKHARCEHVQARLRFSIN

[5] = growth suppression of beta-catenin-knockout colon cells, dose response, cell-based, HCT116, human colon tumor (AID 1045); format: functional;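 note: HCT116 colon tumor cells with beta catenin knocked out; cells exposed to compound for 60 hours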
[6] = growth suppression of PTEN-null colon cells, dose response, cell-based, HCT116 PTEN knockout (AID 1047); format: functional;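 note: HCT116 colon tumor cells with PTEN knocked out; cells exposed to compound for 60 hours before readout; potency for loss of cell viability measured by luminescence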
Cytochrome P450 3A4 [7] = molecular target: T2, Cytochrome P450 3A4; remark: listed apart in the source
Cytochrome P450 2C19 = Cytochrome P450 2C19 (Homo sapiens, UniProt P33261); test: Cytochrome panel assay with activity outcomes. Panel member name: p450-cyp2c19 Compounds with AC50 equal or less than 10 uM are considered active; format: functional; conditions: read-out: AC50
Chain of Cytochrome P450 2C19 (P33261 whole entry): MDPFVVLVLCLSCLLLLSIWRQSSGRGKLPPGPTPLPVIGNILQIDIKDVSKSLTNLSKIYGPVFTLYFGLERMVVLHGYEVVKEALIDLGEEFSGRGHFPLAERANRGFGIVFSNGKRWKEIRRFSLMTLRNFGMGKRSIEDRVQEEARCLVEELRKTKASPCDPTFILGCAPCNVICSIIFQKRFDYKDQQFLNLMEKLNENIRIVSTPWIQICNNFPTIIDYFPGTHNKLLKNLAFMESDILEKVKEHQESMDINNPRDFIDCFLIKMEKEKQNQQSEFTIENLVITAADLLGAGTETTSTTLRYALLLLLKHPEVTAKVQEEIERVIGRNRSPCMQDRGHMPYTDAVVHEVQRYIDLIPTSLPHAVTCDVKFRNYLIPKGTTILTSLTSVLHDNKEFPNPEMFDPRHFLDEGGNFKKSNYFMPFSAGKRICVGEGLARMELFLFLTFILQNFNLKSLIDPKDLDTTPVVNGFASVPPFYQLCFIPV

H4 = test: Luminescence Cell-Based Dose Response HTS to Identify Activators of 5'UTR Stem-Loop Driven Prion Protein mRNA Translation in H4 Neuroglioblastoma Cells. [Related pubchem assays: 1829 (Project Summary), 1814 (Primary HTS)]; format: functional; conditions: Homo sapiens
[8] = Luminescence Cell-Based Dose Confirmation HTS to Identify Activators of 5'UTR Stem-Loop Driven Alpha-Synuclein mRNA Translation in H4 Neuroglioblastoma Cells. [Related pubchem assays: 1829 (Project Summary), 1814 (Primary HTS)]; format: functional
[9] = Luminescence Cell-Based Dose Response HTS to Identify Activators of Luciferase Translation or Activity in H4 […] Cells. [Related pubchem assays: 1829 (Project Summary), 1814 (Primary HTS)]; format: functional
Cytochrome P450 2C9 [10] = molecular target: T1, Cytochrome P450 2C9; remark: listed apart in the source
[11] = molecular target: T4, Microphthalmia-associated transcription factor (Homo sapiens, UniProt O75030); test: TRPM1 promoter luciferase signal decrease, dose response, MITF inhibitor project, cell-based, SK-MEL-5, cherry-picked, set 3 (AID 493073); format: functional
T4 sequence (O75030 whole entry): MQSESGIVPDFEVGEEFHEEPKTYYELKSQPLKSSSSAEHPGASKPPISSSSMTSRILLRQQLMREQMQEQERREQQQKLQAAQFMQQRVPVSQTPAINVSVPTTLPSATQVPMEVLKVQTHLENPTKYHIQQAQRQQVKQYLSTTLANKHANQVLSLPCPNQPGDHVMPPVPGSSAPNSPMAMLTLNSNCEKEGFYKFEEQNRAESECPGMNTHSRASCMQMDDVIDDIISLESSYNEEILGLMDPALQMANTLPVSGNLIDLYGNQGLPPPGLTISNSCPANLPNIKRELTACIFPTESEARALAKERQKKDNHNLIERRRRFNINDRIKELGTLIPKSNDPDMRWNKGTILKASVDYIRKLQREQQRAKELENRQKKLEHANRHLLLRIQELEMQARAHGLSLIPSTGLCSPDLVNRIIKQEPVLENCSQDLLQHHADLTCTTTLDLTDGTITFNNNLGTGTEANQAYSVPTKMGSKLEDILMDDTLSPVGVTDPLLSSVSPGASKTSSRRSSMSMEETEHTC

[12] = molecular target: T5, RNA-binding protein pos-1 (Caenorhabditis elegans, UniProt G5EF15); test: inhibitors of POS-1/mex-3 RNA binding, dose response, biochemical, fluorescence polarization (AID 1964);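 note: purified POS-1 fused to maltose binding protein made in E. coli; potency of compounds blocking POS-1 binding to fluorescent RNA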
T5 sequence (G5EF15 whole entry): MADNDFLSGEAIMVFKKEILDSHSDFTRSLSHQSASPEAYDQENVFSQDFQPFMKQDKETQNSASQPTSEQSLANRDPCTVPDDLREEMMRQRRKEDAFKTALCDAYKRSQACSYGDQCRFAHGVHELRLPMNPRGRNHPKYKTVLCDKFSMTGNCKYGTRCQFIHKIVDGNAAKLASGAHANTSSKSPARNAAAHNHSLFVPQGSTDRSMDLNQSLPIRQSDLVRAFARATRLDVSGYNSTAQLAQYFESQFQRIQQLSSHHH

[13] = inhibitors of intracellular T. cruzi replication, confirmation, NIH3T3 host cells, beta-gal luminescence (AID 2044); format: functional, cell-based;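 note: intracellular parasites grown in NIH/3T3 mouse fibroblasts as host cells; luminescent beta-galactosidase reporter signal from transgenic T. cruzi replicating inside host cells; inhibitors lower the luminescence signal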
[14] = cytotoxicity toward NIH3T3 fibroblasts, dose response, counter-screen, cell-based, ATP luminescence, mouse fibroblasts (AID 2010); format: functional;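 note: cells exposed to compound for about 90 hours before reading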
[15] = molecular target: T6, Zinc finger protein mex-5 (Caenorhabditis elegans, UniProt Q9XUB2); test: MEX-5/TCR-2 RNA interaction inhibitors, dose response, biochemical, C. elegans, fluorescence polarization (AID 1960)
T6 sequence (Q9XUB2 whole entry): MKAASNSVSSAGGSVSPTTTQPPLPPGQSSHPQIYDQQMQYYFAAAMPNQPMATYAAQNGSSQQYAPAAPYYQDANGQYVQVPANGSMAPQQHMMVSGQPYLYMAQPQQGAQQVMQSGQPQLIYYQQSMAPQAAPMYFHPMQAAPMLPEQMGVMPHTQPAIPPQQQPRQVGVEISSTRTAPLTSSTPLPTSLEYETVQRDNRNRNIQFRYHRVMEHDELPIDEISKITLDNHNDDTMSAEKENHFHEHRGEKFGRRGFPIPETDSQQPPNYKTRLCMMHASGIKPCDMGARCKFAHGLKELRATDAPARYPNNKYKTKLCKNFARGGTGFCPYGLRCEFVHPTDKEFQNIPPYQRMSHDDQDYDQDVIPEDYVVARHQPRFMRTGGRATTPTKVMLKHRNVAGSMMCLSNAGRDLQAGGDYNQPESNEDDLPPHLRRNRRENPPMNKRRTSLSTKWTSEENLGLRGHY

[16] = Luminescence Cell-Based Dose Retest to Confirm Inhibitors of Cancer Stem Cells. [Related pubchem assays (depositor defined):AID2717, AID2721]; format: functional; conditions: Homo sapiens
INS1 = test: beta cell apoptosis inhibitors, cytokine rescue, dose response, luminescence, retest (AID 449756); format: functional, cell-based; conditions: Rattus norvegicus;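 note: cell death triggered by IL-1 beta plus TNF-alpha plus IFN-gamma mixture; protective hits raise ATP signal compared with cytokine alone wells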
[17] = molecular target: T7, Polyadenylate-binding protein 1 (Homo sapiens, UniProt P11940); test: PABP1 MLLE–PAM2 binding inhibitor potency, dose response, biochemical, fluorescence polarization, FITC-PAM2 peptide (AID 602259); format: functional; conditions: read-out: IC50_Mean
T7 sequence (P11940 whole entry): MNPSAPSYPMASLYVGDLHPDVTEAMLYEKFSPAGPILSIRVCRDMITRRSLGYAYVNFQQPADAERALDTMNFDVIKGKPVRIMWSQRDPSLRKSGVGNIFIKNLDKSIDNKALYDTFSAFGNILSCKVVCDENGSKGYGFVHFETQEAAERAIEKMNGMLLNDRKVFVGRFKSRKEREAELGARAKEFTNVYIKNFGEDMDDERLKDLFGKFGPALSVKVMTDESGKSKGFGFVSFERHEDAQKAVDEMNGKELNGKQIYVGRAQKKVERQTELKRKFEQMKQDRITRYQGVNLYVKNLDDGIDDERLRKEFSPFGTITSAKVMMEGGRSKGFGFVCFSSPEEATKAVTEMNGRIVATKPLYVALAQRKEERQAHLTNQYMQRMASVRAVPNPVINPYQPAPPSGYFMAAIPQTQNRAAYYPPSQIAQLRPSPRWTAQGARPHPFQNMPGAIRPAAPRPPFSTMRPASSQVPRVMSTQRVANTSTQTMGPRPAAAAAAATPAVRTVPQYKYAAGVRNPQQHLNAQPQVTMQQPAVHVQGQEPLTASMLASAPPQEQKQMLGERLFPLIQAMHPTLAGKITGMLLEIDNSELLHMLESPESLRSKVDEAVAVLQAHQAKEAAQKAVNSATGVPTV

[18] = molecular target: T7, Polyadenylate-binding protein 1; test: PABP1 MLLE–PAM2 interaction inhibitors, dose response, miRNA deadenylation inhibitor project, biochemical, fluorescence polarization, Cy5-PAM2 peptide, secondary (AID 602260); format: functional; conditions: read-out: IC50_Mean

Chain of Cytochrome P450 2D6 (P10635 whole entry): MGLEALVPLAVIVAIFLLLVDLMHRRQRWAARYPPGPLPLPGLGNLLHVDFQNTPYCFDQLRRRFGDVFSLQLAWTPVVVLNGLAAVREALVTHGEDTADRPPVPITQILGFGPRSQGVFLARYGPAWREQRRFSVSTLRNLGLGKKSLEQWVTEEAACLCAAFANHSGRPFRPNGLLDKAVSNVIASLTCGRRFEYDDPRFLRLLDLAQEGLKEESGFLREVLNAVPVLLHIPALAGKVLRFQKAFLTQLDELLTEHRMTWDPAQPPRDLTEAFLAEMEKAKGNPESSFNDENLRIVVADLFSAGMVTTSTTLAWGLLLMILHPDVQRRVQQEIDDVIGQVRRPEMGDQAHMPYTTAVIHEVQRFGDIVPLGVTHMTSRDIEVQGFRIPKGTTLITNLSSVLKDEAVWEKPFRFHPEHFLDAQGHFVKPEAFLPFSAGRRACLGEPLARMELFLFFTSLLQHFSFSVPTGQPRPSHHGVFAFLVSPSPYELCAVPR
T1 sequence (P11712 whole entry): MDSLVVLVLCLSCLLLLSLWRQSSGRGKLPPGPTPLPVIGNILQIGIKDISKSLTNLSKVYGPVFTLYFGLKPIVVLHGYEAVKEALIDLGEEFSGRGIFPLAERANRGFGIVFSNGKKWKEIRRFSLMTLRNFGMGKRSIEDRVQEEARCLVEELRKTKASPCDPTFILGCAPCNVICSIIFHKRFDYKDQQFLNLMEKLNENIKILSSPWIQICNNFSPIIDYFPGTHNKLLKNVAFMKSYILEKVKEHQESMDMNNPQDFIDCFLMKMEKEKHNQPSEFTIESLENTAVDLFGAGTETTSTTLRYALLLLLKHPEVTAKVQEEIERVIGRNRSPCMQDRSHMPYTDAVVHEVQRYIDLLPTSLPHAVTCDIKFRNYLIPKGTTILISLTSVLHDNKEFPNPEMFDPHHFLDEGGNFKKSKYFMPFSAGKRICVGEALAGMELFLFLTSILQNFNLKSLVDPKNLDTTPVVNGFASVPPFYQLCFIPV

## S=c1nc(-c2ccccc2)oc2c1CCCC2
Cytochrome P450 2C9 [1]
  AC50: inconclusive

## Cc1noc(C)c1-c1nccc(-n2ccnc2)n1
Cytochrome P450 2D6
  AC50: 20 µM (inconclusive)
Cytochrome P450 2C9 [1]
  AC50: inconclusive

## Cc1cccc(C(=N)NOC(=O)c2ccccc2Cl)c1
[2]
  EC50: 1.96 µM (active)
[3]
  EC50: 3.84 µM (active)

## Cc1cccc(NC(=O)CCCN2C(=O)c3cccc4cccc(c34)C2=O)c1
Cytochrome P450 2D6
  AC50: 25.1 µM (inconclusive)
Cytochrome P450 2C9 [1]
  AC50: inconclusive

## Cc1ccc(O)c(N=Nc2ccccc2)n1
[2]
  EC50: 1.2 µM (active)
[3]
  EC50: < 0.701 µM (active)

## CSc1nc2ccccc2cc1/C=C(\C#N)c1ccccc1
Cytochrome P450 3A4 [4]
  AC50: inconclusive

## Cc1ccccc1-c1cc(NCCN2CCOCC2)ncn1
Cytochrome P450 1A2
  AC50: 31.6 µM (inconclusive)
Cytochrome P450 3A4 [4]
  AC50: inconclusive

## CO/N=C/c1ccc(N2CCN(C(=O)c3ccc(Cl)cc3Cl)CC2)c([N+](=O)[O-])c1
[5]
  EC50: 22.3 µM (active)
[6]
  EC50: 20.3 µM (active)
Cytochrome P450 3A4 [4]
  AC50: inconclusive

## CCC(=O)Nc1cccc(-c2nc3ccccc3c(=O)o2)c1
Cytochrome P450 3A4 [7]
  AC50: 28.2 µM (inconclusive)
Cytochrome P450 2D6
  AC50: 31.6 µM (inconclusive)
Cytochrome P450 2C19
  AC50: 39.8 µM (inconclusive)
Cytochrome P450 2C9 [1]
  AC50: inconclusive

## CC(C)c1ccc(-c2cc(C(=O)NN3CCN(C)CC3)c3ccccc3n2)cc1
H4
  EC50: 9.4 µM (active)
[8]
  EC50: 3.59 µM (active)
[2]
  EC50: 18.2 µM (active)
[9]
  EC50: 3.27 µM (active)
[3]
  EC50: 5.93 µM (active)

## CC1(C)CC(N2CCC(=O)NC2=S)CC(C)(C)N1
[2]
  EC50: > 112 µM (not active)
[3]
  EC50: > 112 µM (not active)

## CCN(CC)CCO[C@H]1CC[C@@]2(C)C(=CC[C@@H]3[C@H]2CC[C@]2(C)C(=O)CC[C@H]32)C1
Cytochrome P450 3A4 [4]
  AC50: inconclusive

## C=CC[C@H](N)C(=O)O
Cytochrome P450 3A4 [4]
  AC50: inconclusive

## C[C@@]12CC[C@@H]3[C@@H](CC[C@H]4C[C@@H](O)CC[C@]43C)[C@H]1CC[C@@H]2c1cc(C(F)(F)F)[nH]n1
Cytochrome P450 3A4 [4]
  AC50: inconclusive
Cytochrome P450 2C9 [10]
  AC50: 7.94 µM (inconclusive)

## O=C(NCc1cccs1)C1CCN(S(=O)(=O)c2cccc3nsnc23)CC1
Cytochrome P450 1A2
  AC50: 0.158 µM (inconclusive)
Cytochrome P450 2D6
  AC50: 6.31 µM (inconclusive)
Cytochrome P450 2C9 [1]
  AC50: inconclusive

## Cn1c(=O)c2cc(S(=O)(=O)NCCC(=O)NCCc3ccc(Cl)cc3)ccc2n(C)c1=O
Cytochrome P450 1A2
  AC50: 0.0398 µM (inconclusive)
Cytochrome P450 2C9 [1]
  AC50: inconclusive

## O=C(N/N=C/c1ccc(F)cc1)c1c(O)nc2ccccc2c1O
[11]
  AC50: 9.64 µM (active)

## CCS(=O)(=O)N1CCC[C@H]2CN3CCc4cc(OC)ccc4[C@@H]3C[C@@H]21
Cytochrome P450 1A2
  AC50: 31.6 µM (inconclusive)
Cytochrome P450 2C9 [1]
  AC50: inconclusive

## Cc1ccccc1-n1c(=O)cc(N2CC(C)OC(C)C2)[nH]c1=O (stereo unspecified)
Cytochrome P450 3A4 [4]
  AC50: inconclusive

## CCCCCCN1C=CC(=C2C(=O)c3ccccc3C2=O)C=C1
[11]
  AC50: 3.86 µM (active)

## O=C(NC1CCN(Cc2ccccc2)CC1)c1ccc(I)cc1
Cytochrome P450 1A2
  AC50: 39.8 µM (inconclusive)
Cytochrome P450 3A4 [4]
  AC50: inconclusive
Cytochrome P450 2C9 [10]
  AC50: 39.8 µM (inconclusive)

## Oc1cccc(/C=N/Nc2nn3cnnc3c3ccccc23)c1
[2]
  EC50: 5.06 µM (active)
[3]
  EC50: 18.8 µM (active)

## O=C(CCNC(=O)c1ccc(Br)o1)NCc1ccccn1
Cytochrome P450 3A4 [7]
  AC50: 14.1 µM (inconclusive)
Cytochrome P450 1A2
  AC50: 14.1 µM (inconclusive)
Cytochrome P450 2C19
  AC50: 17.8 µM (inconclusive)
Cytochrome P450 2C9 [1]
  AC50: inconclusive

## O=C(/C=C/c1ccc([N+](=O)[O-])s1)N1CCCC1
[12]
  EC50: > 300 µM (not active)
[13]
  EC50: 1.03 µM (active)
[14]
  EC50: > 60 µM (not active)
[15]
  EC50: > 300 µM (not active)
[11]
  AC50: 9.86 µM (active)

## O=C(OCC#CCSc1nnc(-c2cccc3ccccc23)o1)c1ccco1
Cytochrome P450 2C9 [1]
  AC50: inconclusive

## Cc1ccc(C(C)C)c(OCc2n[n+](CC(=O)c3ccc(Cl)cc3)c3n2CCCCC3)c1
[16]
  AC50: 3.31 µM (active)
INS1
  AC50: 3.41 µM (active)
[13]
  EC50: 0.304 µM (active)
[14]
  EC50: > 60 µM (not active)
[11]
  AC50: 9.83 µM (active)

## Cc1ccc(N=C(S)c2ccc3ccccc3n2)c(C)c1
[2]
  EC50: > 112 µM (not active)
[17]
  IC50: > 66 µM (inactive)
[12]
  EC50: > 300 µM (not active)
[18]
  IC50: > 66 µM (inactive)
[3]
  EC50: > 112 µM (not active)
[15]
  EC50: > 300 µM (not active)
